Data as given in patent US20170260169A1, “INHIBITORS FOR STEROID RESPONSE ELEMENTS AND RNA POLYMERASE II AND RELATED METHODS” (priority 2007, published 2017).
Read-outs that look alike come from different tables or passages of the source.

Tests used:
LNCaP cells = assay: Confocal microscopy of fluorescein polyamide uptake in LNCaP cells; assay type: cell-based; conditions: for nuclear localization in LNCaP cells: 2 μM, 24 hr
Protocol: Cells were plated in 35 mm optical dishes (MatTek) and dosed with polyamide 86 at 1 μM for 24 hours with or without 1 μM MG132. Cells were then washed with PBS and imaged on a confocal microscope (Exciter, Zeiss) using a 63× oil immersion lens. Confocal imaging was performed following established protocols (33).
To determine the biological activity of 78 in LNCaP cells we first looked for evidence nuclear localization using fluorescein analog 90. The fluorescein analog of 77, compound 88, was used as benchmark.

[1] = Liver microsomal stability, mouse; conditions: 1 μM, Mouse, 1 hr at 37° C., 1 mg/ml microsomes
Protocol: (§1) Briefly, each polyamide was incubated with 1 mg/ml human or mouse microsomes at 37° C. The reaction was incubated in 100 mM KH2PO4, 2 mM NADPH, 3 mM MgCl2 at pH 7.4. Samples were also incubated in the absence of NADPH to detect NADPH-free degradation. After 60 min the samples were mixed with an equal volume of ice cold methanol stop solution. The mixture was allowed to sit on ice for at least 10 min and mixed with an equal volume of water. The samples were then centrifuged to remove the precipitates and the samples were analyzed by LC/MS/MS. Data represents % remaining by comparing with time zero concentration. The experiments were performed in duplicate.

[2] = Multiple-dose subcutaneous injections, male C57BL/6J mice; assay type: in vivo; conditions: 1 mg/kg SC every 3 days
Protocol: In addition to single dose injections, the effects of repeated dosing of polyamides 77-80 in mice were examined. In this experiment, 8 week-old male C57BL/6J mice (n=3 per dosing group) were treated with 1 mg/kg of polyamides 77-80 by subcutaneous injection every 3 days, for a cycle of three injections and then sacrificed two days after the final injection (FIG. 31A). As in the single dosing experiments, two mice per group were subjected to histopathology analysis and all blood samples were sent for analysis. […] These mice were promptly euthanized.
Serum from treated animals were collected by retroorbital bleeding. […] All samples were sent for analysis at IDEXX-RADIL.

[3] = Liver microsomal stability, human; conditions: 1 μM, Human, 1 hr at 37° C., 1 mg/ml microsomes
Protocol: as §1

[4] = Escalating single dose subcutaneous injections, male C57BL/6J mice (weight, histopathology, serum); conditions: for weight loss after single SC dose: 1, 3, 10 mg/kg, 9 days
Protocol: Representative mice (n=2 per dosing group unless otherwise noted) were subjected to histopathology analysis by a veterinary pathologist. Blood from all mice was sampled and sent for analysis of serum markers of target organs. […] These mice were euthanized when significant duress was apparent.
All animal experiments were conducted under an approved protocol at the California Institute of Technology. Animals were allowed to adjust for 3 days after arrival before treatment. […] Animals were monitored daily for weight loss over 9 days and sacrificed. […] Weight was recorded on days of injection and at the experiment endpoint.
Sacrificed animals from weight loss experiments were fixed in 10% formalin and sent for histopathology analysis by IDEXX-RADIL. Histopathologic analysis was performed on the cecum, duodenum, heart, ileum, kidney, liver, lung, pancreas, spleen, and stomach. Tissue analysis was performed as a blind study to the identity of the animals.
Serum from treated animals were collected by retroorbital bleeding. Blood samples were centrifuged at 6,000 rpm for 5 min to collect the serum. Serum ALT, AST, total bilirubin, BUN, and creatinine levels were sent for analysis by IDEXX-RADIL. Serum analysis was performed as a blind study to the identity of the animals.

[5] = Liver uptake of fluorescein-polyamide conjugates in mice; assay type: in vivo; conditions: 50 nmol (~3 mg/kg), 24 hours
Protocol: Male C57BL/6J mice (n=2 per group) were injected with 50 nmol (˜3 mg/kg) of 88-91 and then sacrificed 24 hours later. Tissue was excised and processed as previously described (20). The tissues were excised and fixed in 10% Neutral Buffered Formalin for 48 hours. They were subsequently cryoprotected in 15% and 30% aqueous sucrose solution (w/v) for 24 hours each, embedded in a medium for frozen sections (Sakura) and frozen on dry ice. Fluorescence intensity in liver tissue was assessed by laser confocal microscopy in 10 μm thick sections on slides mounted with a ProLong antifade reagent (Invitrogen).

[6] = tested on: PSA mRNA expression in LNAR cells; assay: PSA mRNA expression in LNAR cells (hormone refractory, over-express AR); assay type: cell-based
Text: The cell line LNAR was used, which has been engineered to over-express AR (14). LNAR cells over-express AR and form hormone refractory tumors when xenografted in mice (14).

[7] = tested on: PSA mRNA expression in LNCaP cells; assay: DHT-induced PSA mRNA in LNCaP cells, quantitative real-time RT-PCR; assay type: cell-based; conditions: for inhibition of DHT-induced PSA expression: up to, at 10 μM, 1 nM DHT
Protocol: LNCaP cells (ATCC) were plated in 24-well plates at a density of 40-50×10^3 cells per well (80-100×10^3 cells per ml) in RPMI medium 1640 (ATCC) supplemented with 10% FBS (Irvine Scientific, Santa Ana, Calif.). After 72 h, the medium was replaced with RPMI medium 1640 containing 10% charcoal stripped FBS with or without polyamides at the designated concentrations. Cells were grown for an additional 48 h and then treated with 1 nM DHT for 16 h. When appropriate, bicalutamide was added 2 h before DHT stimulation. Isolation of RNA and cDNA synthesis was performed as described (21). Quantitative real-time RT-PCR was performed with SYBR Green PCR Master Mix (Applied Biosystems, Foster City, Calif.) on an ABI 7300 instrument. PSA mRNA was measured relative to β-glucuronidase as an endogenous control.

[8] = tested on: FKBP5 mRNA expression in LNCaP cells; assay: DHT-induced FKBP5 mRNA in LNCaP cells; assay type: cell-based
[9] = tested on: transcripts in DHT-stimulated LNCaP cells; assay: Gene expression with Affymetrix Human Genome U133 Plus 2.0 arrays, DHT-stimulated LNCaP cells; assay type: cell-based
Protocol: LNCaP cells were plated in 12-well plates at a density of 80-100×10^3 cells per well. Media, polyamide treatments, and time courses were the same as described above. Bicalutamide was added 2 h before DHT stimulation. RNA was isolated as described in ref. 21. From this point, experiments were carried out at the Millard and Muriel Jacobs Gene Expression Facility at the California Institute of Technology. Labeled mRNA was hybridized to Affymetrix high-density Human Genome U133 Plus 2.0 arrays according to established protocols. Gene expression was analyzed by using Resolver (Rosetta Biosoftware, Seattle, Wash.). Data were uploaded to the Gene Expression Omnibus repository (accession no. GSE7708).
Global effects of polyamides 1 and 2 and bicalutamide on gene expression in DHT-stimulated LNCaP cells were monitored with Affymetrix (Santa Clara, Calif.) high-density Human Genome U133 Plus 2.0 arrays, which interrogate >50,000 transcripts.

[10] = Serum circulation after subcutaneous injection in C57BL/6 mice; assay type: in vivo; conditions: 10 mg/kg, male C57BL/6J
Protocol: To investigate if polyamide 77 could be detected in peripheral blood after SC injections, 120 nmol of 77 (in 5% DMSO/PBS) was injected into the right flank of four C57BL/6 mice. Blood was collected from anesthetized mice via retroorbital collection at 5 minutes, 4 h, and 12 h after injection, then processed by methods previously described and analyzed by HPLC (35). For measurement of serum PSA (KLK3) and uric acid, blood was collected from anesthetized mice via retroorbital collection at experimental endpoint and serum was separated from blood by centrifugation. Serum PSA (KLK3) was measured by ELISA (R&D systems) according to manufacturer's instructions. Uric acid was measured as described (36).
We synthesized four structurally related polyamides (FIG. 28) that have an identical Py-Im sequence ImPyPyPy-γ-ImPyPyPy-NHMe-IPA.

[11] = 10 μM, + DHT, relative to DHT-induced controls, p ≦ 0.01
[12] = relative to DHT-induced controls, + DHT

CN(CCCNC(=O)c1cc(NC(=O)c2cc(NC(=O)c3cc(NC(=O)c4nc(NC(=O)C[C@H](CNC(=O)c5cc(NC(=O)c6cc(NC(=O)c7cc(NC(=O)c8nccn8C)cn7C)cn6C)cn5C)NC(=O)OCc5ccccc5)cn4C)cn3C)cn2C)cn1C)CCCNC(=S)Nc1ccc(-c2c3ccc(=O)cc-3oc3cc(O)ccc23)c(C(=O)O)c1 [Polyamide 86]
cellular uptake with MG132 (LNCaP cells; 1 μM, 24 hours, 1 μM MG132): did not affect the cellular uptake

CN(CCCNC(=O)c1cc(NC(=O)c2cc(NC(=O)c3cc(NC(=O)c4nc(NC(=O)[C@H](N)CCNC(=O)c5cc(NC(=O)c6cc(NC(=O)c7cc(NC(=O)c8nccn8C)cn7C)cn6C)cn5C)cn4C)cn3C)cn2C)cn1C)CCCNC(=S)Nc1ccc(-c2c3ccc(=O)cc-3oc3cc(O)ccc23)c(C(=O)O)c1 [Polyamide 88]
nuclear localization in LNCaP cells (LNCaP cells): robust nuclear localization

CN(CCCNC(=O)c1cccc(C(=O)O)c1)CCCNC(=O)c1cc(NC(=O)c2cc(NC(=O)c3cc(NC(=O)c4nc(NC(=O)C[C@@H](N)CNC(=O)c5cc(NC(=O)c6cc(NC(=O)c7cc(NC(=O)c8nccn8C)cn7C)cn6C)cn5C)cn4C)cn3C)cn2C)cn1C [Polyamide 79, ImPyPyPy-3-(R)H^2Nγ-ImPyPyPy-NHMe-IPA]
Mean remaining parent NADPH-free [1]: 100% | Mean remaining parent with NADPH [1]: 92.4% | liver and kidney histopathology [2]: mild multifocal hepatocellular necrosis and apoptosis in the liver and mild variable tubular attenuation, karyomegaly and epithelial necrosis and apoptosis in the kidney | liver and kidney serum markers [2]: elevated AST and ALT | weight and physical morbidity ([2]; three injections): no loss in weight or physical morbidities | Mean remaining parent NADPH-free [3]: 100% | Mean remaining parent with NADPH [3]: 91.9% | weight loss after single SC dose [4]: significant weight loss only at 10 mg/kg | kidney histopathology ([4]; single SC 3 mg/kg): Moderate atypical tubular regeneration | liver histopathology ([4]; single SC 3 mg/kg): Mild hepatocellular necrosis and apoptosis | liver histopathology ([4]; single SC 10 mg/kg): diffuse hepatocellular necrosis and apoptosis | spleen histopathology ([4]; single SC 10 mg/kg): Mild lymphoid apoptosis in the white pulp of the spleen | serum kidney markers creatinine and BUN ([4]; single SC dose): elevated BUN at 10 mg/kg | serum liver markers AST, ALT, total bilirubin ([4]; single SC dose): severe elevation of AST, ALT, and total bilirubin at 10 mg/kg and to a lesser extent at 3 mg/kg

CC(=O)N[C@H](CCNC(=O)c1cc(NC(=O)c2cc(NC(=O)c3cc(NC(=O)c4nccn4C)cn3C)cn2C)cn1C)C(=O)Nc1cn(C)c(C(=O)Nc2cc(C(=O)Nc3cc(C(=O)Nc4cc(C(=O)NCCCN(C)CCCNC(=S)Nc5ccc(-c6c7ccc(=O)cc-7oc7cc(O)ccc67)c(C(=O)O)c5)n(C)c4)n(C)c3)n(C)c2)n1 [Polyamide 90]
nuclear fluorescence in liver sections [5]: less nuclear fluorescence in liver sections than the other FITC-polyamide conjugates | nuclear localization in LNCaP cells (LNCaP cells): robust nuclear localization

CC(O)(CS(=O)(=O)c1ccc(F)cc1)C(=O)Nc1ccc(C#N)c(C(F)(F)F)c1 (stereo not shown) [bicalutamide, reference compound]
IC50 ([6]; LNAR + DHT, read-out: IC50 for inhibition of PSA mRNA expression): > 1000 µM | IC50 ([6]; LNAR − DHT, bicalutamide induces PSA mRNA in LNAR cells, read-out: IC50 for inhibition of PSA mRNA expression (value in parentheses)): 3.5 µM | IC50 ([7]; Homo sapiens, LNCaP + DHT, read-out: IC50 for inhibition of PSA mRNA expression): 0.9 µM | inhibition of DHT-induced PSA expression [7]: approximately 70% | inhibition of DHT-induced PSA expression ([7]; listed as Bicalutamide): ≈ 70% | inhibition of DHT-induced expression of FKBP5 [8]: ~95% | Number of transcripts down-regulated (fold change ≦ −2.0) [9, 11]: 602 | Number of transcripts down-regulated (fold change ≦ −4.0) [9, 11]: 133 | Number of transcripts up-regulated (fold change ≧ 2.0) [9, 11]: 611 | Number of transcripts up-regulated (fold change ≧ 4.0) [9, 11]: 96 | number of transcripts affected by at least 2-fold ([9]; 10 μM, P≦0.01, vs DHT-induced controls): 1,213 | number of the 88 DHT-repressed transcripts derepressed at least 2-fold ([9]; P≦0.01): 87 | number of the 199 DHT-induced transcripts inhibited at least 2-fold ([9]; P≦0.01): 186 | Fold-change of FKBP5 [9, 12]: −36.4 | Fold-change of KLK2 [9, 12]: −14.7 | Fold-change of KLK3 (PSA) [9, 12]: −3.2 | Fold-change of TMPRSS2 [9, 12]: −4.1

Cn1cc2cc1C(=O)NCCCC(=O)Nc1cn(C)c(n1)C(=O)Nc1cc(n(C)c1)C(=O)Nc1cc(n(C)c1)C(=O)Nc1cc(n(C)c1)C(=O)NCC[C@@H](N)C(=O)Nc1cn(C)c(n1)C(=O)Nc1cc(n(C)c1)C(=O)Nc1cc(n(C)c1)C(=O)N2 [Polyamide 87]
bioavailability in serum after subcutaneous injection [10]: bioavailable after subcutaneous injection at 10 mg/kg | weight loss after single SC dose [4]: did not cause significant weight loss | overall toxicity / organ damage ([4]; single SC 1, 3, 10 mg/kg): moderate damage to both the liver and kidney at 3 and 10 mg/kg | serum liver markers AST, ALT, total bilirubin ([4]; single SC dose): caused levels of ALT and AST to increase in a dose dependent manner

CC(=O)N[C@@H](CNC(=O)c1cc(NC(=O)c2cc(NC(=O)c3cc(NC(=O)c4nccn4C)cn3C)cn2C)cn1C)CC(=O)Nc1cn(C)c(C(=O)Nc2cc(C(=O)Nc3cc(C(=O)Nc4cc(C(=O)NCCCN(C)CCCNC(=S)Nc5ccc(-c6c7ccc(=O)cc-7oc7cc(O)ccc67)c(C(=O)O)c5)n(C)c4)n(C)c3)n(C)c2)n1 [Polyamide 91]
nuclear fluorescence in liver sections [5]: the most intense nuclear fluorescence in liver sections
